“Also recorded” adds a separate entry of the source. Ends that are not written are not given here. Peptide text beside a SMILES is read from it.
Legend:
Caspase-3 = Caspase-3 fluorimetric assay in EML cell lysates after HS and SCF deprivation; assay type: cell-based, murine; conditions: for Caspase-3 proteolytic activity, Exp 1 / Caspase-3 proteolytic activity, Exp 2 / Caspase-3 proteolytic activity, Exp 3 / Caspase-3 proteolytic activity, Sum of 3 experiments: 10 μM present during starvation, starvation control 100%; for Caspase-3 activation induced by HS and SCF deprivation: EML cells, peptide present during starvation
Experimental: To assess possible effect of Compound A and other peptides on Caspase-3 enzymatic activity during apoptosis induced by serum starvation fluorimetric assay Caspase-3 assay was performed according to the manufacturer's instructions (ApoAlert Clontech Mountain view CA).
Cell suspensions after the incubation were divided into two equal tubes (+/−Caspase inhibitor). Cells were centrifuged at 400×g for 5 min and re-suspend in chilled Cell Lysis Buffer with the following incubation on ice for 10 min., cell lysates were centrifugated in a microcentrifuge at max speed for 10 min at 4° C. and transferred into new tubes.
50 μl of 2× Reaction buffer/DTT mix and 1 μl of Caspase inhibitor added to 50 μl of cell lysate (+Inhibitor groups). 1 uL DMSO per 50 μL of 2× Reaction buffer was added to samples without inhibitor.
5 μL of the 1 mM Caspase-3 Substrate (DEVD-AFC; 50 μM final concentration) were added to each tube and incubated at t-37° C. for 1 hr in a water bath. All samples in duplicates were transferred to a 96 well plate. The plates were analyzed on a fluorescence plate reader (Spectramax Gemini.) at a 400 nm excitation and a 505 nm emission, and Caspase-3 activity was expressed relative to the medium control. Free AFC accumulation that resulted from cleavage of the asparatic-AFC bond monitored by fluorimeter and results in duplicates were recalculated according to the free AFC calibration curve.

THP-1 cells = test: Cytokine production by THP-1 cells in response to LPS; assay type: cell-based; conditions: 4 hours, levels ranging from 1 μM down to 10 nM
Experimental: THP-1 cells activated with 0.2 μM vitamin-D3 (EMD Biosciences Inc) and cultured in cRPMI [RPMI plus 10% ΔFBS (both Lonza)] were transferred to 24-well dishes. Different concentrations of Compound A or related peptides were added (in triplicate) and the plate placed in a 37° C. incubator.
After 1 hour, crude-LPS from E. coli 0111:B4 (20 ng-100 ng/ml final conc) was added to some wells. Supernatant aliquots were taken after 4 hours and cytokine levels determined using a cytokine bead array kit (BD558277).

hindlimb ischemia = test: Unilateral hindlimb ischemia by femoral artery ligation; assay type: in vivo; conditions: C57/BL6 mice, day 9; peptide 250 μg/kg s.c., DFO 100 mg/kg i.m.
Excerpt: Ligation of the femoral artery in mice is an established model of hindlimb ischemia for testing treatments that might improve revascularization and functional recovery.
A total of 50 C57/B16 8-10 week old female mice were divided into 5 treatment groups (n=10/group).
• 1. Vehicle Control • 2. DFO (intramuscular) DFO (desferrioxamine) has been reported to improve revascularization by augmenting HIF-1α activation in sites of damage, to elicit secretion of local angiogenic factors and chemotactic signals that attract circulating repair-promoting stem and progenitor cells) • 3. DFO (intramuscular)+Compound C (subcutaneous) • 4. Compound A (subcutaneous) • 5. DFO (intramuscular)+Compound A (subcutaneous)
Mice were subjected to unilateral total ligation and transection of the femoral artery under anesthesia (2% Isoflurane mixed with 100% oxygen). A unilateral incision was made over the left medial thigh of each mouse. […]
On day 0, 4, 9, and 14, the condition of left hind limbs were evaluated with Muscle Function Score and Ischemia Score. […]
Recovery of circulation and function in the hindlimb ischemia model involves angiogenesis and revascularization, a process triggered by oxygen deficits. Revascularization was evaluated on day 14 after artery ligation by counting capillaries in cross sectional histology slides prepared from gastrocnemius muscles from both legs. […]

EML-Cl cells = test: CFU-GEMM number of EML cells after 3 hr serum and SCF deprivation; assay type: cell-based, murine; conditions: for rescue of CFU-GEMM: serum and SCF deprivation, 10 μM
Experimental: Erythroid myeloid lymphoid (EML) cells are an established multipotent hematopoietic precursor cell line (EML-Cl) that can be maintained in medium including stem cell factor (SCF) and Horse serum (HS). When plated in methylcellulose with cocktail of growth factors EML cells form mixed colonies (CFUmix or CFU-GEMM) containing a mix of erythroid and myeloid cells that can be enumerated after 7 days of incubation.
Starvation of EML-Cl cell line cells of serum and SCF during 3 hr causes majority of CFUmix to develop apoptosis and die, which decreases their number growing in methylcellulose substantially.
EML cells were grown in IMDM with 10% HS and 100 ng/ml of SCF in IMDM and used for all experiments in exponential growth phase.
Cells were washed from serum and growth factor with IMDM two times, counted and placed into 12 ml polypropylene tubes 2×10^6 cells in 2 ml for 3 hr incubation at t-37° C. and 5% CO2.
Cell suspensions after the incubation were centrifuged, diluted 5 times with IMDM and counted using a hemacytometer. Cells were adjusted to 10^3 cells/mL in IMDM and cell suspension was placed into 50 mL tubes with 4.5 mL of Methylcellulose M3434 mixed well and seeded into 35-mm Petri dishes (Falcon BD351008) at 1 mL/dish. Cells were incubated at 37° C., 5% CO2.
CFU were scored using an inverted microscope after 7 days of incubation.

human recombinant DPPIV = human recombinant DPPIV (Homo sapiens, UniProt P27487); test: Hydrolysis of N-terminal by recombinant DPPIV; assay type: in vitro ADME; conditions: previously shown
[1] = Cleavage of peptide during 3 hr incubation with murine bone marrow cells (HPLC, MS); assay type: in vitro ADME; conditions: 100 μg/ml, 37° C., absence of serum
Experimental: B6D2F1 mice (HSD) were treated with 100 mg/kg testosterone propionate 24 hr before being sacrificed, femurs were removed and bone marrow cells (BMC) were flushed from bone marrow cavity. BMC—5×10^6 cells/ml was resuspended in IMDM. Cell suspension was placed into 14-ml Falcon tubes (BD). Peptide Compound A, (Think Peptides) was added to cells at 100 μg/ml concentration. The appropriate volume of IMDM was added to another control supernatant tube containing 1 ml of cells. Cells were incubated for 3 hours at 37° C. After 3 hours of incubation, tubes were centrifuged, supernatants were collected and proteins with Mw>10 KD were eliminated by Amicon filtration at 3000 rpm 25 minutes. 0.5 ml of supernatant containing <10 Kd material was collected from each sample and heat inactivated during 10 min at t-70° C. The following samples were prepared for HPLC and MS: Control supernatant (<10 Kd); Supernatant from cells incubated with Compound A (<10 Kd); Compound A (50 μL) spiked into cell culture medium; and Compound C (50 μL) spiked into cell culture medium.

murine recombinant DPPIV = murine recombinant DPPIV (Mus musculus, UniProt P28843); test: Hydrolysis of N-terminal by recombinant DPPIV; assay type: in vitro ADME; conditions: previously shown
CFU-GEMM [2] = test: Effect of S1P gradient disruption (DOP) on mobilization after multiple subcutaneous injections; assay type: in vivo; conditions: DBA/2J mice, DOP in glucose drinking water
Experimental: In this experiment the inhibitor of S1P lyase activity, 4-deoxypyridoxine (DOP, Sigma-Aldrich) was administrated to mice in the drinking water in order to test if disruption of S1P gradient has an effect on mobilization induced by Compound A. Fifteen week-old DBA/2J male mice (Jackson Laboratories) were divided into 4 groups of 4 mice each. All Mice received glucose drinking water (10 g/L) throughout the duration of the study. DOP ([…]) was added to the glucose water of two groups. Mice were subcutaneously injected for four consecutive days with 500 μg/kg of Compound A or Saline. At one-hour post injections on day 4, peripheral blood from mice was harvested from the orbital plexus using capillary tubes (VWR) and collected into EDTA-containing tubes (BD). To determine mobilization of colony-forming unit cells out of the peripheral blood, mononuclear cells were plated in mouse methylcellulose complete media (R&D Systems). The cells were placed into 35-mm Petri dishes at 100,000 cells per dish with 5 dishes per group. Cells incubated for 11 days in a 37° C. and 5% CO2 humidified incubator. CFU colonies were then scored using an inverted microscope.

CFU-GEMM [3] = test: Mobilization of CFU-GEMM and CFU-GM in db/db mice with high glucose level; assay type: in vivo; conditions: 5 mg/kg s.c.
Experimental: To test mobilizing effect of Compound A in db/db mice with high level of glucose the following experiment was conducted. BKS.Cg-Dock7m+/+Leprdb/J male mice (10 weeks old Jackson Laboratories, stock #000642) were subcutaneously injected with 0.9% saline (vehicle control), 5 mg/kg Compound C, or 10 mg/kg Compound A (ThinkPeptides) for 5 consecutive days. At 7 days post initial injection, peripheral blood from 3 mice per group was harvested from the orbital plexus using capillary tubes (VWR) and collected into EDTA-containing tubes (BD).

CFU-GEMM and CFU-GM = test: Mobilization of stem cells into peripheral blood after multiple subcutaneous injections; assay type: in vivo, mice; conditions: dose response
Excerpt: This example is based on a protocol for a 5-day course of once-daily Compound A injections into DBA male mice similar to a G-CSF. […]
[…] At 7 days post initial injection, peripheral blood from 3 mice per group was harvested from the orbital plexus using capillary tubes (VWR) and collected into EDTA-containing tubes (VWR). Blood was also harvested and pooled from 3 naïve mice to serve as a naïve control group.

[4] = test system: hematopoietic stem cells (HSC) and their hematopoietic progenitors (HPC); test: Mobilization of stem cells into peripheral blood after single subcutaneous injection (colony-forming assay); assay type: in vivo; conditions: DBA/2J mice, single 125 μg/kg dose, within one hour of administration
Experimental: Stimulatory doses of Compound A activate quiescent stem cells, induce them to proliferate and egress from bone marrow into peripheral blood. […]
After 1 hour, mice were anesthetized and blood was collected through the orbital sinus with heparinized capillary tubes. To enumerate HSC and HPC in peripheral blood, cells were washed, counted and plated in semi-solid Methylcellulose (Stem cell technology) at 100,000 per dish (5 dishes/group) and placed in CO2 incubator at 37° C. Colony-forming unit-granulocyte erythroid macrophage megakaryocyte (CFU-GEMM) and Colony-forming unit-granulocyte macrophage (CFU-GM) were detected under inverted microscope after 7-10 days in culture.

murine recombinant DPPIV, sequence (P28843 whole entry): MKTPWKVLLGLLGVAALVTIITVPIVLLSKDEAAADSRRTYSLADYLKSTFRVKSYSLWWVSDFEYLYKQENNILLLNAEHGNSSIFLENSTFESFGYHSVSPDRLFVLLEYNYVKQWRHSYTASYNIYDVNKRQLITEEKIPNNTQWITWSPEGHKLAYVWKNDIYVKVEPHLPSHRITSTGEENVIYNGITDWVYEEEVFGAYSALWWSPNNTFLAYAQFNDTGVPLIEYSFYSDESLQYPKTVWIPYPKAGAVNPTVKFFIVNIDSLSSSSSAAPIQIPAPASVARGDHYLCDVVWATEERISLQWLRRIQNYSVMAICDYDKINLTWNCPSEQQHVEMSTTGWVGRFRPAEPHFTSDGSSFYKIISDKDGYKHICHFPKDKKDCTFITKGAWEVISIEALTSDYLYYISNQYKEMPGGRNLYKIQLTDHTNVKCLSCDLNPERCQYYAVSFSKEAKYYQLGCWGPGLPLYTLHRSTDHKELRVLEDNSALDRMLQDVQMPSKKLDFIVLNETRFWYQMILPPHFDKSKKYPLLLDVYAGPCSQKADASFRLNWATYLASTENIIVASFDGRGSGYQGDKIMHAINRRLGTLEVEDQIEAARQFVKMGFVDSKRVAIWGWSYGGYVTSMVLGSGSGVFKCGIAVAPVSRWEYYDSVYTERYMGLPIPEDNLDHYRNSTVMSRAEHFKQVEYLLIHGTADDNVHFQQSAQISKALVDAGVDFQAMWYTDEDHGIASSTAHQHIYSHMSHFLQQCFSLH
human recombinant DPPIV, sequence (P27487 whole entry): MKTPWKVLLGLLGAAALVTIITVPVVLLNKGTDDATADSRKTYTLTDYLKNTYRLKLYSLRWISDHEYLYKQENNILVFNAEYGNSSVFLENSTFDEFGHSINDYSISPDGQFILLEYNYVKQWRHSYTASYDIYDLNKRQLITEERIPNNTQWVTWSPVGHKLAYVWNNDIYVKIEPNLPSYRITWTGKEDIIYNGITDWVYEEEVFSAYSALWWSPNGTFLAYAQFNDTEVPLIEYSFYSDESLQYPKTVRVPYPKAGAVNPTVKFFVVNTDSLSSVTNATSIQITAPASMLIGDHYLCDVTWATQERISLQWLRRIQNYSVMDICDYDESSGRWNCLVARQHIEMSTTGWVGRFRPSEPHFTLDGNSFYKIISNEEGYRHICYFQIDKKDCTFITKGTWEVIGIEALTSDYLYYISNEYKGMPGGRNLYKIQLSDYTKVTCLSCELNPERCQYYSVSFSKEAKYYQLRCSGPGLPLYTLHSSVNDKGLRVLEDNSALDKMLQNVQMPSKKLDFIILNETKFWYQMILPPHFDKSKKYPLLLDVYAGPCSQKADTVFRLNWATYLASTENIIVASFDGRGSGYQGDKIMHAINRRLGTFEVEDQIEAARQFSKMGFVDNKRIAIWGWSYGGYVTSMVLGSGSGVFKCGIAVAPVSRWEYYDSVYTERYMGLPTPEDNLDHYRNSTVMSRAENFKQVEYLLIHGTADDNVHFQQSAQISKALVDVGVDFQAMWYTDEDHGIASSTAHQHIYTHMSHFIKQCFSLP

## N-acetyl-Ser-Asp-Lys-Pro (Ac-SDKP) [AcSDKP]
Caspase-3
  Caspase-3 proteolytic activity, Exp 1: 70%
  Caspase-3 proteolytic activity, Exp 2: 84%
  Caspase-3 proteolytic activity, Exp 3: 65%
  Caspase-3 proteolytic activity, Sum of 3 experiments: 73 +/− 9.8%
  Caspase-3 activation induced by HS and SCF deprivation: prevented Caspase-3 activation
THP-1 cells
  TNFα secretion: strongly inhibited

## CC(=O)N(O)CCCCCNC(=O)CCC(=O)N(O)CCCCCNC(=O)CCC(=O)N(O)CCCCCN [DFO, desferrioxamine]
Hindlimb ischemia
  Muscle Function Score: maintained impairment

## CCCCCCCCCCCC1N[C@H](C(=O)O)CS1 (stereo partly drawn) [CAY10444]
EML-Cl cells
  rescue of CFU-GEMM: rescued CFU-GEMM

## FC(F)(F)c1cccc(-c2noc(-c3cc(-c4ccccc4)c(C(F)(F)F)s3)n2)c1 [SEW2871]
EML-Cl cells
  rescue of CFU-GEMM: rescued CFU-GEMM

## JTE-013
EML-Cl cells
  rescue of CFU-GEMM: rescued CFU-GEMM

## CCCCCCCCCCCCC/C=C/[C@@H](O)[C@@H](N)COP(=O)(O)O [Compound S1P, Sphingosine 1-phosphate]
EML-Cl cells
  rescue of CFU-GEMM: rescued CFU-GEMM

## CC(C)C[C@H](NC(=O)[C@H](CC(=O)O)NC(=O)[C@H](Cc1ccccc1)NC(=O)[C@H](Cc1c[nH]cn1)NC(=O)[C@@H]1CCCN1C(=O)[C@@H](N)Cc1ccccc1)C(=O)N[C@@H](CO)C(=O)N[C@@H](Cc1c[nH]cn1)C(=O)NCC(=O)N[C@@H](CO)C(=O)N[C@@H](C)C(=O)N[C@@H](CCC(N)=O)C(=O)N[C@H](C(=O)N[C@@H](CO)C(=O)N[C@@H](CC(=O)O)C(=O)N[C@@H](CCCCN)C(=O)N1CCC[C@H]1C(=O)O)C(C)C [Compound A, Phe-Pro-His-Phe-Asp-Leu-Ser-His-Gly-Ser-Ala-Gln-Val-Ser-Asp-Lys-Pro] (H-FPHFDLSHGSAQVSDKP-OH; N-terminus and C-terminus assumed)
Human recombinant DPPIV
  hydrolysis of N-terminal by human recombinant DPPIV: can be hydrolyzed
[1]
  cleavage after incubation with murine bone marrow cells: proteolyses of the peptide was registered
Murine recombinant DPPIV
  hydrolysis of N-terminal by murine recombinant DPPIV: can be hydrolyzed

## Cc1ncc(CO)c(C)c1O [DOP, 4-deoxypyridoxine]
CFU-GEMM [2]
  mobilization of colony forming cells into peripheral blood: decreased mobilization

## FPHFDLSHGSAQV [Compound C, included for comparison with the oligopeptides of this invention]
EML-Cl cells; 3 hr HS and SCF deprivation, compared with combined HS and SCF
  rescue of colony-forming cells (CFUmix/CFU-GEMM) during starvation: rescued colony-forming cells
CFU-GEMM [3]
  CFU-GEMM / progenitor cell mobilization into peripheral blood: did not cause CFU-GEMM mobilization; also recorded: did not mobilize progenitor cells
CFU-GEMM and CFU-GM
  dose with the best effect on CFU-GEMM mobilization: 0.75 mg/kg
Caspase-3
  Caspase-3 proteolytic activity, Exp 1: 66%
  Caspase-3 proteolytic activity, Exp 2: 83%
  Caspase-3 proteolytic activity, Exp 3: 53%
  Caspase-3 proteolytic activity, Sum of 3 experiments: 67.3 +/− 15%
  Caspase-3 activation induced by HS and SCF deprivation: prevented Caspase-3 activation
[4]
  increase in CFU-GEMM numbers: two-fold
